In patent US20260159512A1, “BCAT2 INHIBITORS” (AGIOS PHARMACEUTICALS, INC., priority 2021, published 2026):

Tests used:
Conditions in all cases: average where tested multiple times
BCAT2 [1] = molecular target: T1, BCAT2 (Homo sapiens, UniProt O15382); test: BCAT2 in vitro enzyme inhibition assay (resazurin/diaphorase-coupled fluorescence); assay type: biochemical
T1 sequence (O15382 28-392): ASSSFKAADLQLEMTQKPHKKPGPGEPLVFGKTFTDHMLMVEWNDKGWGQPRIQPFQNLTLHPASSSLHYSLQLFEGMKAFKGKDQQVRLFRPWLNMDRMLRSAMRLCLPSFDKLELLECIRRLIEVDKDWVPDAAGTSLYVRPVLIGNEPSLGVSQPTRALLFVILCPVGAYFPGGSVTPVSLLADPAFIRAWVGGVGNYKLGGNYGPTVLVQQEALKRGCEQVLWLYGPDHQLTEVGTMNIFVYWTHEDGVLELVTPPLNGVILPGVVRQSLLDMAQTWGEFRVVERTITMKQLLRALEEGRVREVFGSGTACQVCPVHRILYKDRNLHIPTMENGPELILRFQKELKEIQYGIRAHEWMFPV
Summary of the method: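 Coupled fluorescence readout: glutamate formed from L-leucine/α-ketoglutarate transamination drives GDH/NAD/diaphorase reduction of resazurin (Ex 540/Em 590). Human BCAT2 was first exposed 1 h at room temperature to compound, top final 100 μM in 3-fold, 10-point series; substrate reaction ran 1 h before SDS quench, in technical duplicate with DMSO max and enzyme-free min controls.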

hBCAT1 = molecular target: T2, hBCAT1 (Homo sapiens, UniProt P54687); test: BCAT1 in vitro enzyme inhibition assay (resazurin/diaphorase-coupled fluorescence); assay type: biochemical
T2 sequence (P54687 1-386): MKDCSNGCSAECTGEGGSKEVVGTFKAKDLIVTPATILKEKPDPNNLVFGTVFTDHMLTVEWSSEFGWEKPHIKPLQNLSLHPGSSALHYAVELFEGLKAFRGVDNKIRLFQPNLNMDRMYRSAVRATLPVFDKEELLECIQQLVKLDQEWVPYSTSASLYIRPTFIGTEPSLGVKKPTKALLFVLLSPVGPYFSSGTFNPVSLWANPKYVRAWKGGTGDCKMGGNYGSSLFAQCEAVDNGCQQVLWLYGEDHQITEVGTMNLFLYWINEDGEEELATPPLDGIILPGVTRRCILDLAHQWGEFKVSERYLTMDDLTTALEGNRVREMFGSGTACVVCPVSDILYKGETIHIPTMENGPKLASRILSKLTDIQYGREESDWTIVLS
Summary of the method: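 Ten-point, 3-fold compound series (top final 100 μM, delivered 1:50 from 50× DMSO stocks) tested against hBCAT1. Inhibition detected via diaphorase-coupled resazurin fluorescence, duplicate wells, with values from repeated runs averaged.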

BCAT2 [2] = molecular target: T1, BCAT2; test: BCAT2 in vitro cell inhibition using engineered A549 cells (KMV cell assay, 13C6-KMV by LC-MS/MS); assay type: cell-based; parameters: The result was an engineered A549 cell line that expressed endogenous BCAT2; endogenous in cells; host or cells: A549 cells with MUT and BCAT1 knocked out by CRISPR/CAS9; key to BCAT2 Cell Inhibition: A: less than or equal to 0.100 μM; B: greater than 0.100 and less than or equal to 0.500 μM; C: greater than 0.500 and less than or equal to 1.000 μM; d: greater than 1.000 μM; E: no fit

Row | SMILES | IC50 (BCAT2 [1]) | IC50 (hBCAT1) | IC50 (BCAT2 [2]) | BCAT2 Cell Inhibition (BCAT2 [2])
1 | CC(C)Cc1nc2cnc(-c3cccc(CO)n3)cc2n1[C@@H]1CCC[C@H](NC(=O)c2ncc(Cl)s2)C1 [Example 311, 5-chloro-N-((1S,3R)-3-(6-(6-(hydroxymethyl)pyridin-2-yl)-2-isobutyl-1H-imidazo[4,5-c]pyridin-1-yl)cyclohexyl)thiazole-2-carboxamide] | ≤ 100 nM | 1000 to 5000 nM | 500 to 1000 nM | –
2 | CNc1nccc(-c2cc3c(cn2)nc(CC(C)C)n3[C@@H]2CCC[C@H](NC(=O)c3ncc(Cl)s3)C2)n1 [Example 316, 5-chloro-N-((1S,3R)-3-(2-isobutyl-6-(2-(methylamino)pyrimidin-4-yl)-1H-imidazo[4,5-c]pyridin-1-yl)cyclohexyl)thiazole-2-carboxamide] | ≤ 100 nM | 1000 to 5000 nM | > 1000 nM | –
3 | CC(C)Cc1nc2cnc(-c3ccc4ccoc4c3)cc2n1[C@@H]1CCC[C@H](NC(=O)c2ncc(Cl)s2)C1 [Example 319, N-((1S,3R)-3-(6-(benzofuran-6-yl)-2-isobutyl-1H-imidazo[4,5-c]pyridin-1-yl)cyclohexyl)-5-chlorothiazole-2-carboxamide] | 100 to 500 nM | 1000 to 5000 nM | – | E
4 | CC(C)Cc1nc2cnc(-c3cc4ccccc4o3)cc2n1[C@@H]1CCC[C@H](NC(=O)c2ncc(Cl)s2)C1 [Example 320, N-((1S,3R)-3-(6-(benzofuran-2-yl)-2-isobutyl-1H-imidazo[4,5-c]pyridin-1-yl)cyclohexyl)-5-chlorothiazole-2-carboxamide] | 100 to 500 nM | 1000 to 5000 nM | – | E
5 | CC(C)C(F)c1nc2cnc(-c3ccccn3)cc2n1[C@@H]1CCC[C@H](NC(=O)c2ncc(Cl)s2)C1 (stereo partly drawn) [Example 322, 5-chloro-N-((1S,3R)-3-(2-(1-fluoro-2-methylpropyl)-6-(pyridin-2-yl)-1H-imidazo[4,5-c]pyridin-1-yl)cyclohexyl)thiazole-2-carboxamide] | ≤ 100 nM | 1000 to 5000 nM | 500 to 1000 nM | –
6 | CC(C)Cc1nc2cnc(-c3nc4ccccc4o3)cc2n1[C@@H]1CCC[C@H](NC(=O)c2ncc(Cl)s2)C1 [Example 324, N-((1S,3R)-3-(6-(benzo[d]oxazol-2-yl)-2-isobutyl-1H-imidazo[4,5-c]pyridin-1-yl)cyclohexyl)-5-chlorothiazole-2-carboxamide] | ≤ 100 nM | 1000 to 5000 nM | 100 to 500 nM | –
7 | Cc1csc(-c2cc3c(cn2)nc(CC(C)C)n3[C@@H]2CCC[C@H](NC(=O)c3ncc(Cl)s3)C2)n1 [Example 326, 5-chloro-N-((1S,3R)-3-(2-isobutyl-6-(4-methylthiazol-2-yl)-1H-imidazo[4,5-c]pyridin-1-yl)cyclohexyl)thiazole-2-carboxamide] | ≤ 100 nM | < 500 nM | ≤ 100 nM | –
8 | CC(C)Cc1nc2cnc(-c3ncns3)cc2n1[C@@H]1CCC[C@H](NC(=O)c2ncc(Cl)s2)C1 [Example 328, 5-chloro-N-((1S,3R)-3-(2-isobutyl-6-(1,2,4-thiadiazol-5-yl)-1H-imidazo[4,5-c]pyridin-1-yl)cyclohexyl)thiazole-2-carboxamide] | 100 to 500 nM | > 5000 nM | > 1000 nM | –
9 | CC(C)Cc1nc2cnc(-c3nc(Cl)cs3)cc2n1[C@@H]1CCC[C@H](NC(=O)c2ncc(Cl)s2)C1 [Example 329, 5-chloro-N-((1S,3R)-3-(6-(4-chlorothiazol-2-yl)-2-isobutyl-1H-imidazo[4,5-c]pyridin-1-yl)cyclohexyl)thiazole-2-carboxamide] | ≤ 100 nM | 500 to 1000 nM | 500 to 1000 nM | –
10 | CC(C)Cc1nc2cnc(-c3nc(CO)cs3)cc2n1[C@@H]1CCC[C@H](NC(=O)c2ncc(Cl)s2)C1 [Example 330, 5-chloro-N-((1S,3R)-3-(6-(4-(hydroxymethyl)thiazol-2-yl)-2-isobutyl-1H-imidazo[4,5-c]pyridin-1-yl)cyclohexyl)thiazole-2-carboxamide] | ≤ 100 nM | < 500 nM | ≤ 100 nM | –

Results, then the compound that gave them:

Row | IC50 (BCAT2 [1]) | IC50 (hBCAT1) | IC50 (BCAT2 [2]) | BCAT2 Cell Inhibition (BCAT2 [2]) | SMILES
11 | ≤ 100 nM | < 500 nM | ≤ 100 nM | – | O=C(N[C@H]1CCC[C@@H](n2c(CC3CC3)nc3cnc(-c4nc[nH]n4)cc32)C1)c1ncc(Cl)s1 [Example 312, 5-chloro-N-((1S,3R)-3-(2-(cyclopropylmethyl)-6-(1H-1,2,4-triazol-3-yl)-1H-imidazo[4,5-c]pyridin-1-yl)cyclohexyl)thiazole-2-carboxamide]
12 | ≤ 100 nM | < 500 nM | ≤ 100 nM | – | O=C(N[C@H]1CCC[C@@H](n2c(COC(F)(F)F)nc3cnc(-c4nc[nH]n4)cc32)C1)c1ncc(Cl)s1 [Example 313, N-((1S,3R)-3-(6-(1H-1,2,4-triazol-3-yl)-2-((trifluoromethoxy)methyl)-1H-imidazo[4,5-c]pyridin-1-yl)cyclohexyl)-5-chlorothiazole-2-carboxamide]
13 | ≤ 100 nM | < 500 nM | 100 to 500 nM | – | COC(c1nc2cnc(-c3nc[nH]n3)cc2n1[C@@H]1CCC[C@H](NC(=O)c2ncc(Cl)s2)C1)C(C)C (stereo partly drawn) [Example 314, 5-chloro-N-((1S,3R)-3-(2-(1-methoxy-2-methylpropyl)-6-(1H-1,2,4-triazol-3-yl)-1H-imidazo[4,5-c]pyridin-1-yl)cyclohexyl)thiazole-2-carboxamide]
14 | ≤ 100 nM | 500 to 1000 nM | 100 to 500 nM | – | O=C(N[C@H]1CCC[C@@H](n2c(COC(F)(F)F)nc3cnc(-n4nccn4)cc32)C1)c1ncc(Cl)s1 [Example 315, N-((1S,3R)-3-(6-(2H-1,2,3-triazol-2-yl)-2-((trifluoromethoxy)methyl)-1H-imidazo[4,5-c]pyridin-1-yl)cyclohexyl)-5-chlorothiazole-2-carboxamide]
15 | ≤ 100 nM | < 500 nM | ≤ 100 nM | – | CC(C)Cc1nc2cnc(-c3nc[nH]n3)cc2n1[C@@H]1CCC[C@H](NC(=O)c2ccc(Cl)s2)C1 [Example 317, 5-chloro-N-((1S,3R)-3-(2-isobutyl-6-(1H-1,2,4-triazol-3-yl)-1H-imidazo[4,5-c]pyridin-1-yl)cyclohexyl)thiophene-2-carboxamide]
16 | ≤ 100 nM | 500 to 1000 nM | 500 to 1000 nM | – | CC(C)Cc1nc2cnc(-c3ncon3)cc2n1[C@@H]1CCC[C@H](NC(=O)c2ncc(Cl)s2)C1 [Example 321, 5-chloro-N-((1S,3R)-3-(2-isobutyl-6-(1,2,4-oxadiazol-3-yl)-1H-imidazo[4,5-c]pyridin-1-yl)cyclohexyl)thiazole-2-carboxamide]
17 | ≤ 100 nM | < 500 nM | ≤ 100 nM | – | O=C(N[C@H]1CCC[C@@H](n2c(CC3(C(F)(F)F)CC3)nc3cnc(-c4nc[nH]n4)cc32)C1)c1ncc(Cl)s1 [Example 325, N-((1S,3R)-3-(6-(1H-1,2,4-triazol-3-yl)-2-((1-(trifluoromethyl)cyclopropyl)methyl)-1H-imidazo[4,5-c]pyridin-1-yl)cyclohexyl)-5-chlorothiazole-2-carboxamide]
18 | ≤ 100 nM | < 500 nM | ≤ 100 nM | – | CC(C)Cc1nc2cnc(-c3ncccn3)cc2n1[C@@H]1CCC[C@H](NC(=O)c2ncc(Cl)s2)C1 [Example 331, 5-chloro-N-((1S,3R)-3-(2-isobutyl-6-(pyrimidin-2-yl)-1H-imidazo[4,5-c]pyridin-1-yl)cyclohexyl)thiazole-2-carboxamide]
